According to ChEMBL document CHEMBL4879554, “Data for DCP probe GNE-2256” (2021):
Activity calls are given as the source filed them. No cut-off for these calls is given here.

Assays:
[1] = IFNalpha human whole blood assay; assay type: tissue-based
[2] = target: Cyclin-dependent kinase 5/CDK5 activator 1 (Homo sapiens) (UniProt Q00535+Q15078); assay: CDK5/p25 Kinase panel; assay type: protein-complex assay; settings: Compound concentration 1.0 uM
[3] = target: Cyclin-dependent kinase 7/ cyclin H (Homo sapiens) (UniProt P51946+P50613); assay: CDK7/cyclinH Kinase panel; assay type: protein-complex assay; settings: Compound concentration 1.0 uM
[4] = target: CDK9/cyclin T1 (Homo sapiens) (UniProt O60563+P50750); assay: CDK9/cyclinT1 Kinase panel; assay type: protein-complex assay; settings: Compound concentration 1.0 uM
[5] = target: Serine/threonine-protein kinase Chk2 (Homo sapiens) (UniProt O96017); assay: CHK2 Kinase panel; settings: Compound concentration 1.0 uM
[6] = target: Casein kinase I isoform alpha (Homo sapiens) (UniProt P48729); assay: CK1_alpha1 Kinase panel; settings: Compound concentration 1.0 uM
[7] = target: Casein kinase I isoform gamma-2 (Homo sapiens) (UniProt P78368); assay: CK1_gamma2 Kinase panel; settings: Compound concentration 1.0 uM
[8] = target: Casein kinase II subunit alpha (Homo sapiens) (UniProt P68400); assay: CK2_alpha1 Kinase panel; settings: Compound concentration 1.0 uM
[9] = target: Dual specificity protein kinase CLK4 (Homo sapiens) (UniProt Q9HAZ1); assay: CLK4 Kinase panel; settings: Compound concentration 1.0 uM
[10] = target: Tyrosine-protein kinase CSK (Homo sapiens) (UniProt P41240); assay: CSK Kinase panel; settings: Compound concentration 1.0 uM
[11] = target: Calcium/calmodulin-dependent protein kinase type 1 (Homo sapiens) (UniProt Q14012); assay: CaMKI Kinase panel; settings: Compound concentration 1.0 uM
[12] = target: Calcium/calmodulin-dependent protein kinase type 1D (Homo sapiens) (UniProt Q8IU85); assay: CaMKI_delta Kinase panel; settings: Compound concentration 1.0 uM
[13] = target: Myotonin-protein kinase (Homo sapiens) (UniProt Q09013); assay: DMPK Kinase panel; settings: Compound concentration 1.0 uM
[14] = target: Epidermal growth factor receptor (Homo sapiens) (UniProt P00533); assay: EGFR Kinase panel; settings: Compound concentration 1.0 uM
[15] = test system: Epidermal growth factor receptor (Homo sapiens), P00533 [L858R,T790M]; assay: EGFR(T790M,L8 58R) Kinase panel; settings: Compound concentration 1.0 uM
[16] = target: Mitogen-activated protein kinase 1 (Homo sapiens) (UniProt P28482); assay: ERK2 Kinase panel; settings: Compound concentration 1.0 uM
[17] = target: Ephrin type-A receptor 1 (Homo sapiens) (UniProt P21709); assay: EphA1 Kinase panel; settings: Compound concentration 1.0 uM
[18] = target: Ephrin type-B receptor 1 (Homo sapiens) (UniProt P54762); assay: EphB1 Kinase panel; settings: Compound concentration 1.0 uM
[19] = target: Receptor tyrosine-protein kinase erbB-2 (Homo sapiens) (UniProt P04626); assay: ErbB2 Kinase panel; settings: Compound concentration 1.0 uM
[20] = target: Receptor tyrosine-protein kinase erbB-4 (Homo sapiens) (UniProt Q15303); assay: ErbB4 Kinase panel; settings: Compound concentration 1.0 uM
Chain of Receptor tyrosine-protein kinase erbB-4 (Homo sapiens) (Q15303 whole entry): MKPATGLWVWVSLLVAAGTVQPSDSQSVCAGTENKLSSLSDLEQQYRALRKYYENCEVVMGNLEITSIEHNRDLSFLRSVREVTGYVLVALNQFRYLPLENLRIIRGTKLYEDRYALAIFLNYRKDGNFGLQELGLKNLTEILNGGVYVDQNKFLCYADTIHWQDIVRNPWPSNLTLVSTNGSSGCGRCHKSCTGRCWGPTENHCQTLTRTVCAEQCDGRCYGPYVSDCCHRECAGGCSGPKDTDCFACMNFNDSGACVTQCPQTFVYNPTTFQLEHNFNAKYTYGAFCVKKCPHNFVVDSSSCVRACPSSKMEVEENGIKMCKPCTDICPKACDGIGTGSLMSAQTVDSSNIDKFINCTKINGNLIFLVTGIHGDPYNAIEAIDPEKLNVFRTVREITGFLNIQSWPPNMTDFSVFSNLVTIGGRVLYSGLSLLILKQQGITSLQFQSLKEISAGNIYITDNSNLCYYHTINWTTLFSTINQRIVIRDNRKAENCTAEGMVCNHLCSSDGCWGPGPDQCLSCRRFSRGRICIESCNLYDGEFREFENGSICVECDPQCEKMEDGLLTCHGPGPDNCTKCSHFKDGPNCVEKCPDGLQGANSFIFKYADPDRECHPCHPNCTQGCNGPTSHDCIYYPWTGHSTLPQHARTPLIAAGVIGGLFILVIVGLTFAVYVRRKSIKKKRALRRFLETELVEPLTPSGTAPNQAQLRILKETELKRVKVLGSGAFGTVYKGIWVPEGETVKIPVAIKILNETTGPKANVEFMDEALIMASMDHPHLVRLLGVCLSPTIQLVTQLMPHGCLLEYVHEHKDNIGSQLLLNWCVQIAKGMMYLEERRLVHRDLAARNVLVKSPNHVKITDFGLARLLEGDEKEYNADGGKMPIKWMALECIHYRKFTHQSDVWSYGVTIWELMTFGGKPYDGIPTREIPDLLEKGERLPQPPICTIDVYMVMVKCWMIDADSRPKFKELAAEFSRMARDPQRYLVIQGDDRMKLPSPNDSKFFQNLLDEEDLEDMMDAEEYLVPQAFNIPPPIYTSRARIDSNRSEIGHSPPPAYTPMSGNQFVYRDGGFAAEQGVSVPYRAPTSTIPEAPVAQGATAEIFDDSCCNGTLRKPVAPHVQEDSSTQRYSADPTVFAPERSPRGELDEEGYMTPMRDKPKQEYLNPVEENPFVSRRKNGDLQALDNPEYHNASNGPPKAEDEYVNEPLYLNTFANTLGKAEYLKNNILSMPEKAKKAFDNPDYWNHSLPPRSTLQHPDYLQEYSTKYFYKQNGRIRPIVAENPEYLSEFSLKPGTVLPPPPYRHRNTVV

[21] = target: Tyrosine-protein kinase Fes/Fps (Homo sapiens) (UniProt P07332); assay: Fes Kinase panel; settings: Compound concentration 1.0 uM
[22] = target: G protein-coupled receptor kinase 3 (Homo sapiens) (UniProt P35626); assay: GRK3 Kinase panel; settings: Compound concentration 1.0 uM
[23] = target: Homeodomain-interacting protein kinase 1 (Homo sapiens) (UniProt Q86Z02); assay: HIPK1 Kinase panel; settings: Compound concentration 1.0 uM
[24] = target: Homeodomain-interacting protein kinase 4 (Homo sapiens) (UniProt Q8NE63); assay: HIPK4 Kinase panel; settings: Compound concentration 1.0 uM
[25] = target: Tyrosine-protein kinase JAK2 (Homo sapiens, UniProt O60674); assay: JAK2 Kinase panel
Chain of Tyrosine-protein kinase JAK2 (O60674 whole entry): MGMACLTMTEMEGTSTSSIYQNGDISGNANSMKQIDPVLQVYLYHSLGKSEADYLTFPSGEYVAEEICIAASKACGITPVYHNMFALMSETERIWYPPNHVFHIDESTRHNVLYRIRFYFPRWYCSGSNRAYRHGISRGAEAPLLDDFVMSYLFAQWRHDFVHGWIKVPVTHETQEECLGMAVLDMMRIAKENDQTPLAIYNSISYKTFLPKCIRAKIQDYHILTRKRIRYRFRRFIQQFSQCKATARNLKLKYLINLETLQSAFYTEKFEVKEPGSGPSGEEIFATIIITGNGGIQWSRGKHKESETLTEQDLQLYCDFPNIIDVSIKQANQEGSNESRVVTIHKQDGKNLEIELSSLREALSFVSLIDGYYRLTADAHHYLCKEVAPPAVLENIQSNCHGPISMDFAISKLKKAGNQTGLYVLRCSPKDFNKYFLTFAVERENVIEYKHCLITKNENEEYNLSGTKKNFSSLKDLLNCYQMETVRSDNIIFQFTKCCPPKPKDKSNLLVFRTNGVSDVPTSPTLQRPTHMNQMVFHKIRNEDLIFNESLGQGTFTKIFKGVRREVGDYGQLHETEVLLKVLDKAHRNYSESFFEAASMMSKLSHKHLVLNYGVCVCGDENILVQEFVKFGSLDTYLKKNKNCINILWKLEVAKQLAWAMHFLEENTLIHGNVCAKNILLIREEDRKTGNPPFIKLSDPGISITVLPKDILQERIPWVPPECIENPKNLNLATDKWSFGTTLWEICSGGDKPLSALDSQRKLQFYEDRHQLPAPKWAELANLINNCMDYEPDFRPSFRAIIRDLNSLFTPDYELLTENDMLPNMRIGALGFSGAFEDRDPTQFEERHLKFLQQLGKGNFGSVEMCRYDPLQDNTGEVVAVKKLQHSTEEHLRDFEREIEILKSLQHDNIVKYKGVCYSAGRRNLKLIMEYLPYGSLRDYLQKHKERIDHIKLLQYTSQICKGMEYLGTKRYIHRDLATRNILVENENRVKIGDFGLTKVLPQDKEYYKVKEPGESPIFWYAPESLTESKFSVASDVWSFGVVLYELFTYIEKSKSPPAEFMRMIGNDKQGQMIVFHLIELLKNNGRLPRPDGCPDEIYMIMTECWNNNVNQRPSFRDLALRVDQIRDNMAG

[26] = target: MAP kinase-activated protein kinase 3 (Homo sapiens) (UniProt Q16644); assay: MAPKAPK3 Kinase panel; settings: Compound concentration 1.0 uM
[27] = target: Mitogen-activated protein kinase kinase kinase 2 (Homo sapiens) (UniProt Q9Y2U5); assay: MEKK2 Kinase panel; settings: Compound concentration 1.0 uM
[28] = target: Dual specificity mitogen-activated protein kinase kinase 6 (Homo sapiens) (UniProt P52564); assay: MKK6 Kinase panel; settings: Compound concentration 1.0 uM
Misshapen-like kinase 1 = Misshapen-like kinase 1 (Homo sapiens, UniProt Q8N4C8); assay: Mink1 Kinase panel
[29] = target: Muscle, skeletal receptor tyrosine-protein kinase (Homo sapiens) (UniProt O15146); assay: MuSK Kinase panel; settings: Compound concentration 1.0 uM
[30] = target: Serine/threonine-protein kinase Nek6 (Homo sapiens) (UniProt Q9HC98); assay: NEK6 Kinase panel; settings: Compound concentration 1.0 uM
[31] = target: Serine/threonine-protein kinase NLK (Homo sapiens) (UniProt Q9UBE8); assay: NLK Kinase panel; settings: Compound concentration 1.0 uM
[32] = target: Serine/threonine-protein kinase PAK 3 (Homo sapiens) (UniProt O75914); assay: PAK3 Kinase panel; settings: Compound concentration 1.0 uM
[33] = target: Serine/threonine-protein kinase PAK 6 (Homo sapiens) (UniProt Q9NQU5); assay: PAK6 Kinase panel; settings: Compound concentration 1.0 uM
[34] = target: PAS domain-containing serine/threonine-protein kinase (Homo sapiens) (UniProt Q96RG2); assay: PASK Kinase panel; settings: Compound concentration 1.0 uM
[35] = target: Serine/threonine-protein kinase pim-1 (Homo sapiens) (UniProt P11309); assay: PIM1 Kinase panel; settings: Compound concentration 1.0 uM
[36] = target: Protein kinase C epsilon type (Homo sapiens) (UniProt Q02156); assay: PKC_epsilon Kinase panel; settings: Compound concentration 1.0 uM
Chain of Protein kinase C epsilon type (Homo sapiens) (Q02156 whole entry): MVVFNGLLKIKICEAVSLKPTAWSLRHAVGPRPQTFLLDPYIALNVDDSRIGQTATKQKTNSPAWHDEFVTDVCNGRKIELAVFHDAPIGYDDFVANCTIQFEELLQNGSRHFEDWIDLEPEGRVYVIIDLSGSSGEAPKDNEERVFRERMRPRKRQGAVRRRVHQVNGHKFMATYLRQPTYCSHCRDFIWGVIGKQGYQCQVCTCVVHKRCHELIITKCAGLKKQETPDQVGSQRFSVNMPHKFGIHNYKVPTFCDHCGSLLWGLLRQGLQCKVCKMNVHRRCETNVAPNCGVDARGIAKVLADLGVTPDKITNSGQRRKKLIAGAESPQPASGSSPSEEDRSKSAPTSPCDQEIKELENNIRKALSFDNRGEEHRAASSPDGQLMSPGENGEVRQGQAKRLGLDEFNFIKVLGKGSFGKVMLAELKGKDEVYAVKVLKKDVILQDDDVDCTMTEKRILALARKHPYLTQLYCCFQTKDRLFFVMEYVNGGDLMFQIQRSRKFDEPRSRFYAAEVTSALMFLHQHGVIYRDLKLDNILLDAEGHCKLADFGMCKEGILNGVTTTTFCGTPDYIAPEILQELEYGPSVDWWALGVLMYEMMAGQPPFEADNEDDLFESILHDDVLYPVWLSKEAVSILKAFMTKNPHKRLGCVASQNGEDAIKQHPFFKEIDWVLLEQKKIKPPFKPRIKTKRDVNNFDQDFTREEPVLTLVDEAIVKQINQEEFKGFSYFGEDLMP

[37] = target: Serine/threonine-protein kinase PLK3 (Homo sapiens) (UniProt Q9H4B4); assay: PLK3 Kinase panel; settings: Compound concentration 1.0 uM
[38] = test system: RAF proto-oncogene serine/threonine-protein kinase (Homo sapiens), P04049 [Y340D,Y341D]; assay: RAF1(Y340D,Y3\n41D) Kinase panel; settings: Compound concentration 1.0 uM
[39] = target: Proto-oncogene tyrosine-protein kinase receptor Ret (Homo sapiens) (UniProt P07949); assay: Ret Kinase panel; settings: Compound concentration 1.0 uM
[40] = target: Macrophage-stimulating protein receptor (Homo sapiens) (UniProt Q04912); assay: Ron Kinase panel; settings: Compound concentration 1.0 uM
[41] = target: TGF-beta receptor type-1 (Homo sapiens) (UniProt P36897); assay: TGFBR1 Kinase panel; settings: Compound concentration 1.0 uM
[42] = target: Tyrosine-protein kinase TXK (Homo sapiens) (UniProt P42681); assay: TXK Kinase panel; settings: Compound concentration 1.0 uM
[43] = target: Non-receptor tyrosine-protein kinase TYK2 (Homo sapiens) (UniProt P29597); assay: TYK2 Kinase panel; settings: Compound concentration 1.0 uM
Chain of Non-receptor tyrosine-protein kinase TYK2 (Homo sapiens) (P29597 whole entry): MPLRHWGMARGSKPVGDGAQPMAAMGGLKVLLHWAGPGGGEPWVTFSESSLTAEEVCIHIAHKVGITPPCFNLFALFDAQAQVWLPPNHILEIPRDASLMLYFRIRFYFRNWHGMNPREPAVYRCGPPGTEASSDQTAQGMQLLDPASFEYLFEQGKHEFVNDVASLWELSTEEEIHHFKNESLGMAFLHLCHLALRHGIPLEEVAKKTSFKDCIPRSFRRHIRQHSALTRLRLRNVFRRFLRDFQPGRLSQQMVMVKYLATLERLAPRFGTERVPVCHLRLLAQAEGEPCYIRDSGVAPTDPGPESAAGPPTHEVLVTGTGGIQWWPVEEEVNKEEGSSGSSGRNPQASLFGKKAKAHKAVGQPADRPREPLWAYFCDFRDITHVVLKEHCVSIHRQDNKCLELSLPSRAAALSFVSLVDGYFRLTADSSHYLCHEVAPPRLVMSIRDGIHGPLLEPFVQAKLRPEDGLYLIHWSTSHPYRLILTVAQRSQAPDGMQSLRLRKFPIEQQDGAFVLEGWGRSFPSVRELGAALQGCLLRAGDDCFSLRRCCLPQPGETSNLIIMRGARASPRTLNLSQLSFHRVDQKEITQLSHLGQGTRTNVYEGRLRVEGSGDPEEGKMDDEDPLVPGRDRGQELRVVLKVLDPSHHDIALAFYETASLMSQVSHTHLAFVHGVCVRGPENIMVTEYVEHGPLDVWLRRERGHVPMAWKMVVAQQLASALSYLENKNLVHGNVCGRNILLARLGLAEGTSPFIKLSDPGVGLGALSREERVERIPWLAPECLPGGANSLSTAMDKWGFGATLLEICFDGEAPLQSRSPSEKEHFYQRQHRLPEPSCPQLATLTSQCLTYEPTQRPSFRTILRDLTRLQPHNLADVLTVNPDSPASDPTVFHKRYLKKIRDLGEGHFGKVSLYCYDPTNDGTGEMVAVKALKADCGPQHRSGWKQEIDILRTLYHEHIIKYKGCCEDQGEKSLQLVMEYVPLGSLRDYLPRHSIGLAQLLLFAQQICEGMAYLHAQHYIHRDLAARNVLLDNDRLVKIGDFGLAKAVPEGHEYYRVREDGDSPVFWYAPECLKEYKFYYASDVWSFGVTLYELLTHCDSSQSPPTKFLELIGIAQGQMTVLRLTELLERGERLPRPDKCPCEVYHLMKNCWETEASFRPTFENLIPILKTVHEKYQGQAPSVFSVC

[44] = target: Serine/threonine-protein kinase WNK2 (Homo sapiens) (UniProt Q9Y3S1); assay: WNK2 Kinase panel; settings: Compound concentration 1.0 uM
[45] = target: Tyrosine-protein kinase Yes (Homo sapiens) (UniProt P07947); assay: Yes Kinase panel; settings: Compound concentration 1.0 uM
[46] = target: Eukaryotic elongation factor 2 kinase (Homo sapiens) (UniProt O00418); assay: eEF_2K Kinase panel; settings: Compound concentration 1.0 uM
[47] = target: Mitogen-activated protein kinase 12 (Homo sapiens) (UniProt P53778); assay: p38_gamma Kinase panel; settings: Compound concentration 1.0 uM
[48] = target: D(3) dopamine receptor (Homo sapiens) (UniProt P35462); settings: Compound concentration 10.0 uM
[49] = target: D(4) dopamine receptor (Homo sapiens) (UniProt P21917); settings: Compound concentration 10.0 uM
[50] = target: Delta-type opioid receptor (Homo sapiens) (UniProt P41143); settings: Compound concentration 10.0 uM
[51] = target: Beta-1 adrenergic receptor (Homo sapiens) (UniProt P08588); settings: Compound concentration 10.0 uM
[52] = target: Muscarinic acetylcholine receptor M5 (Homo sapiens) (UniProt P08912); settings: Compound concentration 10.0 uM
Rattus norvegicus = species on record: Rattus norvegicus; settings: Compound concentration 10.0 uM

Chain of Cyclin-dependent kinase 5/CDK5 activator 1 (Homo sapiens) (Q00535 whole entry): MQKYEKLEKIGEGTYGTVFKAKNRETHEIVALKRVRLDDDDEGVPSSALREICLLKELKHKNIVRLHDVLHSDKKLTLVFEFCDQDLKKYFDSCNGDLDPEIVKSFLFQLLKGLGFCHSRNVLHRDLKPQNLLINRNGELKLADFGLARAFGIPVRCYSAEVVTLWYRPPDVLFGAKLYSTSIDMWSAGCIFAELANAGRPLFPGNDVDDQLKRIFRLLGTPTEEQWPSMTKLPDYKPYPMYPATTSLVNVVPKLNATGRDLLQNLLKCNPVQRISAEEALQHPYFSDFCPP
Chain of Cyclin-dependent kinase 5/CDK5 activator 1 (Homo sapiens) (Q15078 99-307 partner limits assumed): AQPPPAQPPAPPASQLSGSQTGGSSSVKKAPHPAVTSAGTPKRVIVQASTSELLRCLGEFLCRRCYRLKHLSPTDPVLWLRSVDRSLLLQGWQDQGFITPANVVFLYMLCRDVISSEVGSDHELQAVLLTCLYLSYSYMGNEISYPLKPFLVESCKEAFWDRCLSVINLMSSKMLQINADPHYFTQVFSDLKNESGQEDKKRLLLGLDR

**Q.** What does the source list for `CC(C)(O)[C@H](F)CN1Cc2cc(NC(=O)c3cnn4cccnc34)c(N3CCOCC3)cc2C1=O`?
**A.** IC50 [1]: 0.29 µM (active); inhibition [2]: 9%; inhibition [3]: 4%; inhibition [4]: 2.5%; inhibition [5]: 13%; inhibition [6]: -0.5%; inhibition [7]: 5%; inhibition [8]: 3.5%; inhibition [9]: 47.8%; inhibition [10]: 22%; inhibition [11]: -5.5%; inhibition [12]: 2%; inhibition [13]: 2.1%; inhibition [14]: 6.8%; inhibition [15]: 13%; inhibition [16]: 0.5%; inhibition [17]: 20.8%; inhibition [18]: 23%; inhibition [19]: 1.5%; inhibition [20]: 5%; inhibition [21]: 19%; inhibition [22]: -1%; inhibition [23]: -0%; inhibition [24]: 2.5%; IC50 [25]: 0.486 µM; inhibition ([25]; Compound concentration 1.0 uM): 80.5%; inhibition [26]: 6%; inhibition [27]: 3.5%; inhibition [28]: -5.5%; IC50 (Misshapen-like kinase 1): 0.879 µM; inhibition (Misshapen-like kinase 1; Compound concentration 1.0 uM): 80.5%; inhibition [29]: 13%; inhibition [30]: 7%; inhibition [31]: 7%; inhibition [32]: 2%; inhibition [33]: 7%; inhibition [34]: -6.5%; inhibition [35]: 1.5%; inhibition [36]: 13%; inhibition [37]: -3%; inhibition [38]: -1.5%; inhibition [39]: 31.5%; inhibition [40]: 2.5%; inhibition [41]: 0.5%; inhibition [42]: 34%; inhibition [43]: 53.5%; inhibition [44]: 2.5%; inhibition [45]: 41.5%; inhibition [46]: -0%; inhibition [47]: 0.5%; inhibition [48]: -1.84%; inhibition [49]: -9.22%; inhibition [50]: -7.48%; inhibition [51]: 1.93%; inhibition [52]: -6.7%; inhibition (Rattus norvegicus): -2.15%
